Measurements as given in ChEMBL document CHEMBL1156467, “Inhibition of GLI-mediated transcription and tumor cell growth by small-molecule antagonists” (Proc Natl Acad Sci U S A, 2007).
Activity calls are given as the source filed them. The calls are words filed in the database; no cut-off is given here.

How the values were obtained:
[1] = system: HepG2; assay: Induction of apoptosis in human HepG2 cells assessed as caspase3/7 cleavage by luminometric assay; assay type: functional, cell-based
[2] = Inhibition of Gli1 dependent growth of human 22Rv cells at 5 uM; assay type: functional; set-up: scale not given: the % may be the effect or the level left
[3] = system: NIH3T3; assay: Effect on Hedgehog signaling in mouse NIH3T3 cells assessed as activation of TNF signaling; assay type: functional, cell-based
[4] = Reduction in expression of Hedgehog target gene Gli1 in Sufu deficient mouse embryonic fibroblast; assay type: functional
[5] = species: Mus musculus; assay: Reduction of Gil1 mRNA levels at 10 uM in Ptch deficient mouse embryonic fibroblast; assay type: functional
[6] = Inhibition of Hedgehog signaling in […] Shh-L2 cells; assay type: functional, cell-based
[7] = system: DU146; assay: Induction of apoptosis in human […] cells assessed as caspase3/7 cleavage by luminometric assay; assay type: functional, cell-based
[8] = system: HEK293; assay: Inhibition of nuclear accumulation of wild type GLI in HEK293 cells; assay type: functional, cell-based; conditions: Homo sapiens
[9] = target: T1, Zinc finger protein GLI1 (Homo sapiens) (UniProt P08151); assay: Inhibition of GLI via PKA activation in HEK293 cells; assay type: cell-based
T1 sequence (whole entry): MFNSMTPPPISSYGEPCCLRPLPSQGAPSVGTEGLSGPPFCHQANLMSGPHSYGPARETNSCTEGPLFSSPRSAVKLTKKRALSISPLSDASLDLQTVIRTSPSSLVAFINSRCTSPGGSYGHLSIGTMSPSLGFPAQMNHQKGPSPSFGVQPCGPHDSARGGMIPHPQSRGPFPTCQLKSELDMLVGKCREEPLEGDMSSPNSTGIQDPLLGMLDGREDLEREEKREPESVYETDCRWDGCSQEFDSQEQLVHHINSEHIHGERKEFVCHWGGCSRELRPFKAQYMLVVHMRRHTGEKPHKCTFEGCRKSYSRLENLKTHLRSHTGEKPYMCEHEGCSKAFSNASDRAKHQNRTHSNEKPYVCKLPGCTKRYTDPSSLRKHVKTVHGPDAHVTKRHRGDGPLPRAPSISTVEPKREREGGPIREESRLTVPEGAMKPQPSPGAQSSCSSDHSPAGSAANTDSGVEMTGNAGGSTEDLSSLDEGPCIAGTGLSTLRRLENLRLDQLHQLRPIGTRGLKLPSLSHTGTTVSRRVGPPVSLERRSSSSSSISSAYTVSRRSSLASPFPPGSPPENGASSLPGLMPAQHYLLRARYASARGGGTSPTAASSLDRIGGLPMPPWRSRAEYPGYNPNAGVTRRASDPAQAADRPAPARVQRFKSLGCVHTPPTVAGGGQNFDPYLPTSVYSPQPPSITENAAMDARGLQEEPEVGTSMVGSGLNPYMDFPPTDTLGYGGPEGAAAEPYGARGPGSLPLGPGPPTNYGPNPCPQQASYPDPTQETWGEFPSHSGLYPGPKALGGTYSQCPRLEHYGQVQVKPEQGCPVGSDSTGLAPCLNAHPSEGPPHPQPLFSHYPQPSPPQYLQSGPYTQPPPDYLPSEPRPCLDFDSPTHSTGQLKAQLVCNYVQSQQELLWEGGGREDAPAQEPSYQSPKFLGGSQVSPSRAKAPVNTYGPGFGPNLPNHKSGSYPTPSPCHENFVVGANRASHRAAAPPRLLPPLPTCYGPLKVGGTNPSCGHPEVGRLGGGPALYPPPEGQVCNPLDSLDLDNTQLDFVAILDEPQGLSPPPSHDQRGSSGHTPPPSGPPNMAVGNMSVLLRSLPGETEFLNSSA

[10] = Reduction in PTCH expression in human 22Rv cells at 5 uM; assay type: functional, cell-based
[11] = species: Mus musculus; assay: Reduction of Ptch1-lacZ level in mouse embryonic fibroblast by luminometric assay; assay type: functional
[12] = system: Homo sapiens; assay: Antitumor activity in GLI1 positive human 22Rv cells xenografted mouse model at 50 mg/kg, sc after 18 days; assay type: functional, organism-based; set-up: dose 50 mg/kg
[13] = target: T2, Zinc finger protein GLI1 (Mus musculus) (UniProt P47806); assay: Inhibition of GLI1 induced hedgehog signaling in mouse NIH3T3 cells; assay type: cell-based
T2 sequence (whole entry): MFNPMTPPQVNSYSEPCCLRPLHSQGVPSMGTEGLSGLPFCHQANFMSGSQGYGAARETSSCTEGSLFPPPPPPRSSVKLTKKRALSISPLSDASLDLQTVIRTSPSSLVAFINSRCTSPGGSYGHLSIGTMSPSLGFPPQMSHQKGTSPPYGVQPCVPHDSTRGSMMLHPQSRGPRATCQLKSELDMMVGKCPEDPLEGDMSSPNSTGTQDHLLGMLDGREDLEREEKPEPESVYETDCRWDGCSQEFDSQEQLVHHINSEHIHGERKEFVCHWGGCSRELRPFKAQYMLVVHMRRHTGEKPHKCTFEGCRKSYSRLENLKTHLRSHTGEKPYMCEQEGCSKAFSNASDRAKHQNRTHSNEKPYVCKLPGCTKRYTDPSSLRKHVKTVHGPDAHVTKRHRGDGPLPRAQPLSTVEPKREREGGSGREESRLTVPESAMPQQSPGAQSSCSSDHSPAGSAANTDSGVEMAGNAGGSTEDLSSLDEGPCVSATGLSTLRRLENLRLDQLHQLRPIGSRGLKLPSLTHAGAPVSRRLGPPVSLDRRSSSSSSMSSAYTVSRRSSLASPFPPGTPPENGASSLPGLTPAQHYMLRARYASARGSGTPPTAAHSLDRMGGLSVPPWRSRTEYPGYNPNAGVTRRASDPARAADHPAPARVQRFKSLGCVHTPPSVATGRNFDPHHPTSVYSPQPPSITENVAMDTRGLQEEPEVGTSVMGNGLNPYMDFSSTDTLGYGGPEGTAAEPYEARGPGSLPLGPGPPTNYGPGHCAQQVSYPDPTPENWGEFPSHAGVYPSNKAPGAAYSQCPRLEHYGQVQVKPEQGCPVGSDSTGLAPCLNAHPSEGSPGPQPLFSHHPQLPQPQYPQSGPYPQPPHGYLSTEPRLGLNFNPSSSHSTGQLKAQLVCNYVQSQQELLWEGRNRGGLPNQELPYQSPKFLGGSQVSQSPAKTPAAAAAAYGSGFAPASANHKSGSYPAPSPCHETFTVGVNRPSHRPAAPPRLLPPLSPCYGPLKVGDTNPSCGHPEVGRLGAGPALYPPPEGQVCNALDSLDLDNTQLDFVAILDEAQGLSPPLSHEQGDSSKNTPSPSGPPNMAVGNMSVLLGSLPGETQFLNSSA

[14] = system: NIH3T3; assay: Effect on Hedgehog signaling in mouse NIH3T3 cells assessed as transactivation of glucocorticoid receptor; assay type: functional, cell-based
[15] = system: NIH3T3; assay: Inhibition of Hedgehog/Gli1 mediated transformation in mouse NIH3T3 cells at 10 uM; assay type: functional, cell-based
[16] = target: Zinc finger protein GLI2 (Homo sapiens) (UniProt P10070); assay: Reduction of GLI2 mediated transcription in HEK293 cells by luciferase reporter assay; assay type: cell-based
Chain of Zinc finger protein GLI2 (Homo sapiens) (P10070 whole entry): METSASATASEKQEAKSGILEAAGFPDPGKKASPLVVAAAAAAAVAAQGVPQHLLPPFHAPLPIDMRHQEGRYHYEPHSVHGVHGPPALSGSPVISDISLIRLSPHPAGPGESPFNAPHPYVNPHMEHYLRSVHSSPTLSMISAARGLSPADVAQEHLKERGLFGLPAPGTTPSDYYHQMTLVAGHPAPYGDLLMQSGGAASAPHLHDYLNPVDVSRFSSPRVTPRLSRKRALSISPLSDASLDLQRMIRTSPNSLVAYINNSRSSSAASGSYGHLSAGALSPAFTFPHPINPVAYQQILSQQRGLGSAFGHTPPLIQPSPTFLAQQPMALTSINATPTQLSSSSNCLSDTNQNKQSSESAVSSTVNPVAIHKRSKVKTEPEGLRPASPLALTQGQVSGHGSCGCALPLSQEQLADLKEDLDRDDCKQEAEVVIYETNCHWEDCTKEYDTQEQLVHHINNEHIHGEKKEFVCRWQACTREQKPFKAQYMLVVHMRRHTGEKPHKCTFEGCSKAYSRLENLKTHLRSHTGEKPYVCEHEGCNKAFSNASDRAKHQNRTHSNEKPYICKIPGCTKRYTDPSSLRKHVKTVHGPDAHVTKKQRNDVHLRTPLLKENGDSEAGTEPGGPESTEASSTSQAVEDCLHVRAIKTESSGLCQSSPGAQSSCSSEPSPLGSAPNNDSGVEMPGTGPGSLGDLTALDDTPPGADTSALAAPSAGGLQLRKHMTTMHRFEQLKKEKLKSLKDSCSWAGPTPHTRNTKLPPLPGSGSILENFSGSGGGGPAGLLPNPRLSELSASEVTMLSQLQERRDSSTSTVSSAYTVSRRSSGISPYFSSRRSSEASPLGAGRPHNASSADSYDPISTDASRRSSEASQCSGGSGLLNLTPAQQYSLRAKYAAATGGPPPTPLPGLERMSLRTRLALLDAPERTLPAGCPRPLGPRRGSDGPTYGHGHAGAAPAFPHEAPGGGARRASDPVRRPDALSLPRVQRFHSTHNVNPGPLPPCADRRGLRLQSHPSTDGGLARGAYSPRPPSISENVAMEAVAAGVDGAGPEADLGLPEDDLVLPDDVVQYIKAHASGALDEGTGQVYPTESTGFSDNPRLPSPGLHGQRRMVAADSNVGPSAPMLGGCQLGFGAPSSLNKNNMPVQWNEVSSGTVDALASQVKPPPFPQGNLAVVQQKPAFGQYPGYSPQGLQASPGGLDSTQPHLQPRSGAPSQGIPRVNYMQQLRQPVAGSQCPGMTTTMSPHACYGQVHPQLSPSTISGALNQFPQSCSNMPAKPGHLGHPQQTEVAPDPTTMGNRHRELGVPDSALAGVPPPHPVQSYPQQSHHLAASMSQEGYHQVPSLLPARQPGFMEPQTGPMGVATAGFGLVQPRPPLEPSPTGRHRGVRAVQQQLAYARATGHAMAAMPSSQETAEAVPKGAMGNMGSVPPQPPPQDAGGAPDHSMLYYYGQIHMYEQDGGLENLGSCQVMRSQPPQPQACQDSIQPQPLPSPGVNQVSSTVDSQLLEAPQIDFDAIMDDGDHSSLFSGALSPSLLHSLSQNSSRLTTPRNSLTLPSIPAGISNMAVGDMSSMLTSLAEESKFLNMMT

[17] = system: HEK293; assay: Induction of apoptosis in HEK293 cells assessed as caspase3/7 cleavage by luminometric assay; assay type: functional, cell-based; conditions: Homo sapiens
[18] = system: HepG2; assay: Inhibition of Gli1 dependent growth of human HepG2 cells at 5 uM; assay type: functional; set-up: scale not given: the % may be the effect or the level left
[19] = system: NIH3T3; assay: Induction of apoptosis in mouse NIH3T3 cells assessed as caspase3/7 cleavage by luminometric assay; assay type: functional, cell-based
[20] = system: NIH3T3; assay: Effect on Hedgehog signaling in mouse NIH3T3 cells assessed as activation of NF kappaB; assay type: functional, cell-based
[21] = Antiproliferative activity against Ptch deficient mouse embryonic fibroblast at 10 uM by BrdU incorporation; assay type: functional
[22] = Reduction in GlI1 expression in human 22Rv cells at 5 uM; assay type: functional, cell-based
[23] = system: PANC-1; assay: Inhibition of Gli1 dependent growth of human PANC1 cells at 5 uM; assay type: functional; set-up: scale not given: the % may be the effect or the level left
[24] = Reduction of expression of PTCH mRNA in human 22Rv cells; assay type: functional, cell-based
[25] = system: Jurkat; assay: Inhibition of Gli1 dependent growth of human Jurkat cells at 5 uM; assay type: functional; set-up: scale not given: the % may be the effect or the level left
[26] = system: CWR22R; assay: Induction of apoptosis in human 22Rv1 cells assessed as caspase3/7 cleavage by luminometric assay; assay type: functional, cell-based
[27] = system: NIH3T3; assay: Effect on Hedgehog signaling in mouse NIH3T3 cells assessed as transactivation of Ras-Raf-Mek-Mapk cascade; assay type: functional, cell-based
[28] = system: PANC-1; assay: Reduction in PTCH expression in human PANC1 cells at 5 uM; assay type: functional, cell-based
[29] = system: Jurkat; assay: Induction of apoptosis in human Jurkat cells assessed as caspase3/7 cleavage by luminometric assay; assay type: functional, cell-based
[30] = target: T1, Zinc finger protein GLI1 (Homo sapiens); assay: Alteration in DNA binding to GLI1 in HEK293 cells; assay type: cell-based
[31] = system: MEF; assay: Reduction in expression of Hedgehog target gene Hip1 in Sufu deficient mouse MEF cells; assay type: functional, cell-based
[32] = target: T1, Zinc finger protein GLI1 (Homo sapiens); assay: Reduction of GLI1 mediated transcription in HEK293 cells by luciferase reporter assay; assay type: cell-based
[33] = system: HEK293; assay: Inhibition of beta galactosidase in HEK293 cells; assay type: cell-based; conditions: Homo sapiens
[34] = system: PANC-1; assay: Reduction in GLI1 expression in human PANC1 cells at 5 uM; assay type: functional, cell-based
[35] = system: HEK293; assay: Inhibition of nuclear accumulation of GLI mutant in HEK293 cells; assay type: functional, cell-based; conditions: Homo sapiens
[36] = system: HepG2; assay: Cytotoxicity against human HepG2 cells at 10 uM after 48 hrs assessed as reduction in cell viability by MTS assay; assay type: functional, cell-based
[37] = species: Mus musculus; assay: Cytotoxicity against wild type mouse embryonic fibroblast at 10 uM after 48 hrs assessed as reduction in cell viability by MTS assay; assay type: functional
[38] = species: Mus musculus; assay: Antiproliferative activity against mouse embryonic fibroblast at 10 uM assessed as microarray method; assay type: functional
[39] = system: NIH3T3; assay: Cytotoxicity against mouse NIH3T3 cells at 10 uM after 48 hrs assessed as reduction in cell viability by MTS assay; assay type: functional, cell-based

SMILES | Activity [1] | Activity [2] [%] | Activity [3] | Activity [4] | Activity [5] | IC50 [6] [µM] | Activity [7] | Activity [8] | Activity [9] | Activity [10] | Activity [11] | Activity [12] | Activity [13] | Activity [14] | Activity [15] | Activity [16] | Activity [21] [%] | Activity [24] | Activity [31] | Activity [33] | also measured
c1cc(-c2sc(-c3ccncc3)c(-c3ccncc3)c2-c2ccncc2)ccn1 | inactive | 40 | inactive | Active | Active | 5 | inactive | Active | inactive | Active | Active | Active | Active | inactive | Active | Active | 40 | Active | Active | Active | Activity [17]: inactive; Activity [18]: 0%; Activity [19]: inactive; Activity [20]: inactive; Activity [22]: Active; Activity [23]: 40%; Activity [25]: 0%; Activity [26]: inactive; Activity [27]: inactive; Activity [28]: Active; Activity [29]: inactive; Activity [30]: inactive; Activity [32]: Active; Activity [34]: Active; Activity [35]: Active
CN(C)c1ccccc1CN1CCCN(Cc2ccccc2N(C)C)C1c1ccncc1 | inactive | 40 | inactive | Active | Active | 5 | inactive | Active | inactive | Active | Active | Active | Active | inactive | Active | Active | 40 | Active | Active | Active | Activity [36]: inactive; Activity [37]: inactive; Activity [38]: Active; Activity [17]: inactive; Activity [18]: 0%; Activity [19]: inactive; Activity [20]: inactive; Activity [22]: Active; Activity [23]: 40%; Activity [25]: 0%; Activity [26]: inactive; Activity [27]: inactive; Activity [28]: Active; Activity [29]: inactive; Activity [30]: inactive; Activity [39]: inactive; Activity [32]: Active; Activity [34]: Active; Activity [35]: Active
CC1=C2C[C@H]3[C@@H](CC=C4C[C@@H](O)CC[C@@]43C)[C@@H]2CC[C@]12O[C@@H]1C[C@H](C)CN[C@H]1[C@H]2C [CYCLOPAMINE] |  |  |  | inactive | Active |  |  |  |  |  | Active |  |  |  |  |  | 40 | Active | inactive | Active | 
